Assay results taken from patent US4347178A, “Compounds and methods of making” (Burroughs Wellcome Co., priority 1980, dated 1982).

Tests used:
anti-compound 1 sera = assay: RIA of bupropion using compound 6 with anti-compound 1 sera; format: biochemical
Method: Samples of six standard solutions of bupropion in blank plasma having concentrations of 0.39 to 50 ng/ml) are pipetted (0.1 ml each) in duplicate into 12×75 mm plastic tubes. Duplicate non-specific binding (no antibody) and maximum binding tubes (no unlabeled bupropion) receive 0.1 ml blank plasma. Spiked plasma controls at several concentrations of (e.g., 1.0, 10.0, and 100 ng/ml) and plasma samples for assay (diluted into the standard range with blank plasma if necessary) are assayed in duplicate. After being placed in an ice bath, all tubes receive (in order) 0.2 ml ^3 H bupropion (416 pg. containing approximately 10^4 cpm) and 0.7 ml anti-bupropion serum (raised to a ring-functionalized immunogen according to the present invention) (at pre-determined dilutions such that approximately 40% of the ^3 H bupropion added is bound), both in assay buffer (0.05 M phosphate-bufferedisotonic saline, containing 0.01 M EDTA and 0.1% gelatin, pH 7.0). […] The supernatants, containing antibody-bound ^3 H bupropion are carefully decanted into liquid scintillation cocktail for quantitation of ^3 H. After counts (minus average non-specific binding cpm) are expressed as percentages of average maximum binding cpm, bupropion concentrations in plasma samples and spiked controls are read from a standard curve (log concentration vs percent average maximum binding). […]

[1] = system: anti-compound 2 sera and anti-compound 3 sera; assay: RIA of bupropion using 125I-labeled bupropion competitors with anti-compound 2 sera and anti-compound 3 sera; format: biochemical; settings: for RIA sensitivity compared with the compound 10 system: substitution of 7 or 8 as competitor, anti-compound 2 and anti-compound 3 sera
Method: Samples of six standard solutions of bupropion in blank plasma having concentrations of 0.39 to 50 ng/ml) are pipetted (0.1 ml each) in duplicate into 12×75 mm plastic tubes. Duplicate non-specific binding (no antibody) and maximum binding tubes (no unlabeled bupropion) receive 0.1 ml blank plasma. Spiked plasma controls at several concentrations of (e.g., 1.0, 10.0, and 100 ng/ml) and plasma samples for assay (diluted into the standard range with blank plasma if necessary) are assayed in duplicate. After being placed in an ice bath, all tubes receive (in order) 0.2 ml ^3 H bupropion (416 pg. containing approximately 10^4 cpm) and 0.7 ml anti-bupropion serum (raised to a ring-functionalized immunogen according to the present invention) (at pre-determined dilutions such that approximately 40% of the ^3 H bupropion added is bound), both in assay buffer (0.05 M phosphate-bufferedisotonic saline, containing 0.01 M EDTA and 0.1% gelatin, pH 7.0). Non-specific binding tubes receive 0.7 ml assay buffer.) Following incubation either at 25° C. for 2 hours or overnight at 4° C., bound and free ^3 H bupropion are separated by incubation for 10 min at 0° C. with 0.5 ml ice-cold dextran-coated charcoal solution (0.25% dextran, 5 mg/ml charcoal, in assay buffer) followed by centrifugation for 10 minutes at 4° C. […] The supernatants, containing antibody-bound ^3 H bupropion are carefully decanted into liquid scintillation cocktail for quantitation of ^3 H. After counts (minus average non-specific binding cpm) are expressed as percentages of average maximum binding cpm, bupropion concentrations in plasma samples and spiked controls are read from a standard curve (log concentration vs percent average maximum binding).
RIA's have been run according to the method of Example X utilizing ^125 I labeled bupropion competitors of the present invention in conjunction with antisera obtained following immunization with immunogens of the present invention. […] Following the ethanol precipation of antibody-bound ^125 I-bupropion competitior at equilibrium, ^125 I in the protein pellets was quantified.

Compound: CC(NC(C)(C)C)C(=NOCC(=O)NCCc1ccc(O)c([125I])c1)c1cccc(Cl)c1 (stereo not drawn) [compound 6, α-t-Butylamino-3-chloropropiophenone-carboxymethyloxime-^125 I-tyramine amide]
- RIA sensitivity (anti-compound 1 sera): least sensitive RIA

Compound: CC(NC(C)(C)C)C(=O)c1ccc(OCC(=O)NCCc2ccc(O)c([125I])c2)c(Cl)c1 (stereo not drawn) [compound 7, α-t-Butylamino-3-chloro-4-carbomethoxypropiophenone-^125 I-tyramine amide]
- RIA sensitivity compared with the compound 10 system [1]: approximately equal to that obtained with the compound 10 system

Compound: CC(NC(C)(C)C)C(=O)c1ccc(CCCOC(=O)CCC(=O)NCCc2ccc(O)c([125I])c2)c(Cl)c1 (stereo not drawn) [compound 8, α-t-Butylamino-3-chloro-4-γ-hydroxypyropylpropiophenone-hemisuccinate-^125 I-tyramine amide]
- RIA sensitivity compared with the compound 10 system [1]: approximately equal to that obtained with the compound 10 system

Compound: CC(NC(C)(C)C)C(=O)c1ccc(O)c([125I])c1 (stereo not drawn) [compound 9, ^125 I-α-t-Butylamino-3-iodo-4-hydroxypropiophenone]
- RIA sensitivity relative to the compound 10 (3H bupropion) assay system ([1]; in conjunction with either antisera (anti-compound 2 or anti-compound 3)): approximately ten
